The values below come from patent US11439586B2, “Intratumour injection formulation” (US Nano Food & Drug INC, priority 2018, dated 2022).

The structures appear in SMILES notation. Converted amounts (≈) assume the structure as drawn. Read-outs that look alike come from different tables or passages of the source.

A short description of series [1]: Kinematic viscosity measurement of solvents. Format: physicochemical. The conditions noted are these: 25 ° C.
Another series is described as follows: physchem. The conditions noted are these: dehydrated ethanol, 25 °C, organic solvent or mixture.
A short description of series [2]: Solubility of antineoplastic drugs in biocompatible pharmaceutical solvents.
For series [3] the following is noted: cited from earlier work.
Series [4] has as its system subcutaneous transplantation of tumors. To be noted: for Survival of group after drug administration (mice alive): 11 mice at day 0.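 For all read-outs here: nude mice carrying subcutaneous right axillary tumor cell grafts, tumor volume computed as ab^2/2, negative control given blank solvent intratumorally, animals checked daily.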
Method: After three generations of resuscitation, cells in logarithmic growth phase were digested and suspended in complete medium. The number of cells was calculated, with the number of cells expected to be over 3×10^7/ml. The right axillary part of nude mice was disinfected by alcohol. The cell suspension was injected subcutaneously with a dose of 0.15 ml. After injection, a round translucent liquid bubble bulged up. The state of the nude mice and the growth of tumors were observed every day after injection. […] The successful nude mice were randomly divided into four groups: 11 in the positive control group, 11 in the high dose group, 11 in the low dose group and 12 in the negative control group. After grouping, intravenous injection was administered in the positive control group, with the other groups administered different tested product or blank solvent by intratumoral injection.
The longest diameter a (mm) and the shortest diameter b (mm) of tumors were measured by electronic Vernier caliper. The tumor volume of nude mice was calculated by formula: TV=ab^2/2, and the relative tumor volume (RTV) was acquired as RTV=V t/Vo. Vo was the volume of tumors before injection and V t was used to measure the volume of tumors some days after first injection. […] The mice were killed 21 days after injection for ethical reasons.
The mark [5] stands for this setting: Medium Chain Triglycerides, 25 °C, oil or lipid.
Where [6] appears, read: N-N dimethylacetylamide, 25 °C, organic solvent or mixture.
Setting [7] is: PEG-400, 25 °C, organic solvent or mixture.
[8] abbreviates: PEG-400, 110 °C, organic solvent or mixture.
The mark [9] stands for this setting: Tween-80, 25 °C, organic solvent or mixture.
Setting [10] is: glycerin, 25 °C, organic solvent or mixture.
Where [11] appears, read: soybean oil, 25 °C, oil or lipid.
The mark [12] stands for this setting: PEG-300, 25 °C, organic solvent or mixture.

As for `CCO` [Dehydrated ethanol], the Kinematic viscosity measurement in series [1] is on record as 1.41 mm^2/s.

The term solubility denotes the dissolved amount per volume that the medium holds. Turning to `CC(=O)O[C@@]12CO[C@@H]1C[C@H](O)[C@@]1(C)C(=O)[C@H](O)C3=C(C)[C@@H](OC(=O)[C@H](O)[C@@H](NC(=O)OC(C)(C)C)c4ccccc4)C[C@@](O)([C@@H](OC(=O)c4ccccc4)[C@H]21)C3(C)C` [Docetaxel], the solubility is 118000 to 126000 µg/mL (≈ 147 to 156 mM) in “physchem”; under 10000 µg/mL in series [2] (setting [5]); 30000 to 35000 µg/mL (≈ 37.1 to 43.3 mM) in series [2] (Medium Chain Triglycerides, 105 °C, oil or lipid); over 50000 µg/mL in series [2] (setting [6]); under 10000 µg/mL in series [2] (setting [7]); over 40000 µg/mL in series [2] (setting [8]). Besides, the solubility in series [2] (setting [9]) was under 40000 µg/mL; in series [2] (Tween-80, 120 °C, organic solvent or mixture) it was over 40000 µg/mL; in series [2] (setting [10]) it was under 1000 µg/mL; in series [2] (setting [11]), under 10000 µg/mL; in series [2] (soybean oil, 140 °C, oil or lipid), 12500 to 15000 µg/mL (≈ 15.5 to 18.6 mM).

In series [1], `OCC(O)CO` [Glycerol] returned a Kinematic viscosity measurement of 908.8 mm^2/s.

As to `CC[C@@]1(O)C(=O)OCc2c1cc1n(c2=O)Cc2cc3cc(O)ccc3nc2-1` [Hydroxycamptothecine], the solubility in the series “physchem” is under 1000 µg/mL; in series [2] (setting [5]), under 1000 µg/mL; in series [2] (setting [6]), about 71400 µg/mL (≈ 196 mM); in series [2] (setting [12]), under 10000 µg/mL; in series [2] (PEG-300, 90 °C, organic solvent or mixture), over 10000 µg/mL; in series [2] (setting [9]), under 1000 µg/mL. Besides, the solubility in series [2] (setting [10]) is under 1000 µg/mL.

For the compound `CC(=O)O[C@H]1C(=O)[C@@]2(C)[C@H]([C@H](OC(=O)c3ccccc3)[C@]3(O)C[C@H](OC(=O)[C@H](O)[C@@H](NC(=O)c4ccccc4)c4ccccc4)C(C)=C1C3(C)C)[C@]1(OC(C)=O)CO[C@@H]1C[C@@H]2O` [Paclitaxel], the solubility in “physchem” was over 6000 µg/mL; in series [2] (setting [5]), under 6000 µg/mL; in series [2] (Medium Chain Triglycerides, 120 °C, oil or lipid), over 6000 µg/mL; in series [2] (setting [6]), over 50000 µg/mL; in series [2] (setting [7]), under 40000 µg/mL; in series [2] (setting [8]), over 40000 µg/mL. The solubility was under 6000 µg/mL in series [2] (setting [9]); over 6000 µg/mL in series [2] (Tween-80, 110 °C, organic solvent or mixture); under 1000 µg/mL in series [2] (setting [10]); under 6000 µg/mL in series [2] (setting [11]); over 6000 µg/mL in series [2] (soybean oil, 145 °C, oil or lipid). Besides, the “intravenous LD50” value in series [3] (mice) was 12 mg/kg.

As for `COc1cc([C@@H]2c3cc4c(cc3[C@@H](O[C@@H]3O[C@@H]5CO[C@@H](c6cccs6)O[C@H]5[C@H](O)[C@H]3O)[C@H]3COC(=O)[C@H]23)OCO4)cc(OC)c1O` [Teniposide], the solubility in the series “physchem” is under 130 µg/mL; in series [2] (setting [5]), under 200 µg/mL; in series [2] (Medium Chain Triglycerides, 200 °C, oil or lipid), under 200 µg/mL; in series [2] (setting [6]), over 105000 µg/mL; in series [2] (setting [12]), under 10000 µg/mL; in series [2] (PEG-300, 140 °C, organic solvent or mixture), over 50000 µg/mL. For the same compound, the solubility in series [2] (setting [9]) is under 1700 µg/mL; in series [2] (setting [10]) it was under 1000 µg/mL.

On to `COc1cc([C@@H]2c3cc4c(cc3[C@@H](O[C@@H]3O[C@@H]5CO[C@@H](C)O[C@H]5[C@H](O)[C@H]3O)[C@H]3COC(=O)[C@H]23)OCO4)cc(OC)c1O` [etoposide], for which the “Intravenous LD50 of the mice” value in series [3] is “Intravenous LD50 of the mice: 15 mg/kg”. In series [4] (30% survival time, low dose group (intratumoral) to positive control group (intravenous)), the “30% ST, LDG/PCG” value is given as 200% (18/9 = 2). Further, the “Average Tumor Volume V3” value in series [4] (High dosage (intratumoral, 55 mg/kg), 3 days after first injection) amounted to 268.5 mm^3. The “Average Tumor Volume V6” value in series [4] (High dosage (intratumoral, 55 mg/kg), 6 days after first injection) came out at 364.2 mm^3. The “HV6/NV6, tumor volume relative to negative control” value in series [4] (High dosage (intratumoral, 55 mg/kg), 6 days after injection) was “HV6/NV6 = 90.2%”. Also, the “Average Tumor Volume V9” value in series [4] (High dosage (intratumoral, 55 mg/kg), 9 days after first injection) stood at 472.5 mm^3. Also, in series [4] (High dosage (intratumoral, 55 mg/kg), 11 days after first injection), the “Average Tumor Volume V11” value is recorded as 384.0 mm^3. The “Average Tumor Volume V12” value in series [4] (High dosage (intratumoral, 55 mg/kg), 12 days after first injection) came to 276.3 mm^3. In addition, the “HV12/NV, tumor volume relative to negative control” value in series [4] (High dosage (intratumoral, 55 mg/kg), 12 days after injection) is reported as “HV12/NV = 38.0%”. Further, the “Average Tumor Volume V0” value in series [4] (High dosage (intratumoral, 55 mg/kg), before injection) is recorded as 174.4 mm^3. Besides, the “Survival of group after drug administration (mice alive)” value (shortened to “Survival of group”) in series [4] (High dosage intratumoral, Day 6) stood at 11; in series [4] (High dosage intratumoral, Day 9), 11; in series [4] (High dosage intratumoral, Day 11), 11; in series [4] (High dosage intratumoral, Day 12) it was 2; in series [4] (High dosage intratumoral, Day 15), 0; in series [4] (IV. group, Day 6) it was 11. Also, the “Survival of group” value in series [4] (IV. group, Day 9) was 9; in series [4] (IV. group, Day 11) it was 2; in series [4] (IV. group, Day 12), 0; in series [4] (Low dosage intratumoral, Day 6) it was 11; in series [4] (Low dosage intratumoral, Day 9), 11; in series [4] (Low dosage intratumoral, Day 11), 11. The “Survival of group” value is recorded as 11 in series [4] (Low dosage intratumoral, Day 12); 6 in series [4] (Low dosage intratumoral, Day 15); 4 in series [4] (Low dosage intratumoral, Day 18); 3 in series [4] (Low dosage intratumoral, Day 19); 3 in series [4] (Low dosage intratumoral, Day 20). Also, the MST in series [4] (intravenous group (positive control)) turned out to be 9 days; in series [4] (low dosage group, intratumoral injection) it was 15 days. Further, the “outcome of local intratumor injection, in words” value in series [4] (low dosage group) is “superior to the intravenous injection and the negative control group”. The mice surviving result in series [4] (low dosage group (11 mice), 20 days after injection) is “three”. In series [4] (low dosage group (11 mice), 21 days after first injection), the mice still alive entry is recorded as “three”. Besides, the “MST, HDG/PCG” value in series [4] (median survival time, high dose group (intratumoral) to positive control group (intravenous)) is listed as 122% (11/9 = 1.22). Moreover, in series [4] (twelve (12) days after injection, intratumoral injection, low dose group), the “LV12/NV (tumor volume, low dose group to negative control group)” value came to 49.3%.
